Test results reported in patent publication US6740500B1, “Method of screening for non-steroidal neuropsychiatric agents” (priority 2000, dated 2004).

Columns and labels:
[1] = tested on: γ-aminobutyric acid type A (GABAA) receptor; conditions: at low nanomolar concentrations; cited from earlier work
[2] = tested on: ALLO in the cerebrospinal fluid (CSF); experiment: CSF neurosteroid content in patients with unipolar major depression after SSRI treatment; type: in vivo, human; conditions: 8-10 weeks of treatment
[3] = tested on: ALLO content in rat brain slices; experiment: ALLO content in vitro in rat brain slices; type: cell-based
Excerpt: Presumably, this effect was mediated via an inhibition of the oxidative function of the 3α-HSOR by the FGIN-1 drugs. Such an effect would lead to the accumulation of ALLO, since the reverse step—the reduction of 5α-DHP to ALLO was not affected by these compounds. Similar results were obtained in brain slices of ADX/CX rats.

socially isolated mice = experiment: Social-isolation stress mice: brain ALLO content and barbiturate-induced sleeping time; type: in vivo; conditions: single injection 2.6 μmol/Kg i.p.
brain ALLO content = experiment: Brain ALLO content after fluoxetine in normal and ADX/CX male rats; type: in vivo, rat

SMILES | modulation of GABAA receptor function [1] | concentration of ALLO in CSF [2] | ALLO content in rat brain slices [3] | brain content of ALLO and barbiturate-sleeping time (socially isolated mice; group-housed mice) | barbiturate-sleeping time (socially isolated mice; socially isolated mice) | brain content of ALLO (socially isolated mice; socially isolated mice) | increase of brain ALLO content (brain ALLO content; 5-20 mg/kg, i.p., normal and ADX/CX male rats) | brain ALLO content after fluoxetine (brain ALLO content; ADX/CX rats, increase from 2 pmol/g) | dose and time dependence of effect on brain ALLO content (brain ALLO content; also after protracted fluoxetine treatment) | brain ALLO content after fluoxetine (brain ALLO content; normal rats, increase from 3 pmol/g tissue) | brain region specificity of ALLO increase (brain ALLO content; rat brain regions)
CC(=O)[C@H]1CC[C@H]2[C@@H]3CC[C@H]4C[C@H](O)CC[C@]4(C)[C@H]3CC[C@]12C [ALLO, 5α-pregnan-3α-ol-20-one] | positively modulates |  |  |  |  |  |  |  |  |  | 
CNCCC(Oc1ccc(C(F)(F)F)cc1)c1ccccc1 (centres unmarked) [fluoxetine] |  | significantly increased | could increase ALLO content | without altering | normalized | normalized | 2-3 fold | 8 pmol/g | dose- and time-dependent | 9 pmol/g tissue | most pronounced ALLO increase occurring in the olfactory bulb, cortex, and hippocampus
